This is an account of results in patent US20080125405A1, “Composition for treating or preventing olfactory disorder” (Samsung Life Public Welfare Foundation Samsung Medical …, priority 2006, published 2008).

Read-outs that look alike come from different tables or passages of the source.

Assay [1] deals with olfactory epithelial cells. Kind of assay: Columnar arrangement grade of olfactory epithelial cells after 3-methylindole damage, H&E staining. In kind it is in vivo, Sprague-Dawley rats. The conditions noted are these: grade 1 (not arranged) to 3 (well arranged), drug 10 mg/kg oral daily. Here is the method: (§1) To collect the olfactory tissues of the test group, the reference group and the control group, the test animals of the three groups were sacrificed on the fourth day, the seventh day, the fourteenth day and the twenty eighth day after the treatment with 3-methylindole. Six test animals were sacrificed each time.
(§2) H&E staining of the tissue obtained from Example 1-2 was performed by treating the paraffin block cut into a thickness of 4 μm via the above trimming and microtomy steps of Example 1-2 with a hematoxylin solution (Zymed, USA) and an eosin solution (eosin Y, Sigma, USA). More particularly, the H&E staining was performed as follows.
(§3) The paraffin block cut into a thickness of 4 μm as described in Example 1-2, i.e. the tissue specimen, was deparaffinized by repeating a xylene treatment cycle (dipping the tissue into 100% xylene twenty times) three times, was subjected to rehydration and staining with a hematoxylin solution for 5 minutes, and then was washed thoroughly with flowing water for 15 minutes. The washed tissue specimen was subjected to differential staining in 0.25% eosin solution for 40 seconds. After the differential staining, the tissue specimen was treated with an increasing amount of alcohol from a lower concentration to a higher concentration (i.e. 50%, 70%, 95% and 100% alcohol) for 1 hour at each concentration to further carry out dehydration. The dehydrated tissue specimen was passed through xylene three times and was encapsulated by covering it with a cover slide.
(§4) To observe damage to or recovery of the olfactory mucous membrane epithelia, the heights and arrangements of the epithelia in the test groups were compared to each other after carrying out H&E staining. To perform the comparison of the heights of the olfactory epithelia, the height of the olfactory epithelium in each test group was measured by taking a photograph of the olfactory mucous membrane at both upper sides of the nasal septum at a magnitude of 200×, wherein the average height of the olfactory mucous membrane epithelium was determined by using an Image J Program (NIH). Also, to perform the comparison of the heights of the olfactory epithelia, columnar arrangement corresponding to the arrangement of the olfactory epithelial cells in each test group was determined.
Herein, as the grade number increases, a higher degree of regeneration is made in the olfactory mucous membranes.
Additionally, columnar arrangement of the olfactory epithelial cells in each group was determined. The columnar arrangement of each group is shown in FIG. 3 as a grade evaluated according to the above criteria.

Assay [2] deals with olfactory epithelium. Kind of assay: Height (thickness) of olfactory epithelium after 3-methylindole damage, H&E staining. The class given is in vivo, Sprague-Dawley rats. The conditions noted are these: rats, 3-methylindole 150 mg/kg i.p., drug 10 mg/kg oral daily; for height of olfactory epithelium: time point not printed (first sampling, fourth day), mean±SD. Here is the method: as §1, §2, §3, §4
After measuring the heights of the olfactory epithelia, statistical analysis of the results was performed by using the above mentioned Anova test with Bonferroni's correction.

Assay [3] relates to olfactory receptor cells. As to conditions: grade 0 to 4, higher = more regeneration, drug 10 mg/kg oral daily.
Procedure: As test animals, female white Sprague-Dawley rats (Orient Co., Korea) having a body weight of 100-150 g were used. […] The test animals were raised in raising chambers for one week.
The test animals in the test group and the reference group were subjected to intraperitoneal injection of 150 mg/kg (body weight of each test animal) of 3-methylindole (3-MI) so that their olfactory epithelia were damaged. […] To the test animals in the reference group, 10 mg/kg (body weight of each test animal) of a steroid formulation, i.e. prednisolone, dissolved in 1 cc of saline was orally administered according to the same protocol as the test group. Additionally, to the test animals in the control group, the same amount (1 cc) of saline was administered after the olfactory epithelia were damaged, according to the same protocol as the test group.
To observe the distribution of the olfactory receptor cells, immunoreactivity to protein gene product 9.5 (PGP 9.5) known to exist specifically in the olfactory nerve cells was investigated.
The immunohistological staining was performed by using a Histostain-Plus kit (Zymed, San Francisco, USA). The paraffin block cut into a thickness of 4 μm, i.e. the tissue specimen was positioned on a slide coated with poly-L-lysine and was subjected to rehydration by using a decreasing amount of alcohol gradually from 100% alcohol to distilled water. The rehydrated tissue specimen was introduced into heated 10 mM citrate buffer (pH 5.0, Sigma, USA) and was further heated in a microwave oven twice, for 5 minutes each time. Next, the heated tissue specimen was removed from the microwave oven, cooled in the 10 mM citrate buffer for 20 minutes, washed with distilled water, allowed to react with 0.05M Tris-HCl buffer (Tris buffered saline, TBS) containing 3% H2O2 added thereto for 20 minutes to remove the activity of the endogenous peroxidase, and then was washed with 0.05M Tris-HCl buffered saline three times. After removing the activity of the endogenous peroxidase, the washed tissue specimen was treated with 0.1% Triton X-100 (USB, Ohio, USA) for 15 minutes, and further washed with 0.05M Tris-HCl buffered saline three times. After the treatment with 0.1% Triton X-100, the washed tissue specimen was allowed to react with a blocking reagent (10% normal goat serum) for 30 minutes to inhibit non-specific antigen-antibody reactions. […]
Where [4] appears, read: fourteen days after 3-methylindole.
Setting [5] is: twenty eight days after 3-methylindole.
[6] abbreviates: seven days after 3-methylindole.

For `C[C@]12C=CC(=O)C=C1CC[C@@H]1[C@@H]2[C@@H](O)C[C@@]2(C)[C@H]1CC[C@]2(O)C(=O)CO` [prednisolone], the “average grade of columnar arrangement of olfactory epithelial cells” value in assay [1] (four days after 3-methylindole) is 0.9±0.3; in assay [1] (setting [4]), 1.8±0.5; in assay [1] (setting [5]), 2.5±0.4. Further, the “thickness of olfactory epithelium” value was determined as 60.5±11.6 μm in assay [2] (setting [4]), 21.1±13.4 μm in assay [2] (setting [6]) and 72.2±21.8 μm in assay [2] (setting [5]). The “height of olfactory epithelium” value in assay [2] was 9.5±4.7 μm. For the same molecule, the “average PGP 9.5 immunostaining grade” value in assay [3] (four days after 3-methylindole) worked out at 0.5±0.67; in assay [3] (setting [4]) it was 2.42±1.38; in assay [3] (setting [6]), 0.92±0.79; in assay [3] (setting [5]), 1.75±1.22.
Regarding `CC(C)c1c(C(=O)Nc2ccccc2)c(-c2ccccc2)c(-c2ccc(F)cc2)n1CC[C@@H](O)C[C@@H](O)CC(=O)O` [atorvastatin], the “average grade of columnar arrangement of olfactory epithelial cells” value in assay [1] (four days after 3-methylindole) amounted to 1.0±0.5; in assay [1] (setting [4]) it was 1.7±0.7; in assay [1] (setting [6]), 1.7±0.3; in assay [1] (setting [5]), 2.8±0.5. The results for the “thickness of olfactory epithelium” value in assay [2] (setting [4]), in assay [2] (setting [6]) and in assay [2] (setting [5]) were 58.6±16.3 μm, 56.1±26.9 μm and 63.9±20.2 μm, respectively. Moreover, the “height of olfactory epithelium” value in assay [2] is reported as 17.4±15.1 μm.
